Structures can show the parent of a compound that is named as a salt. Where two headings read alike, the source gives them in different places.

The record followed here is patent US9120749B2, “Quinoline derivatives and MELK inhibitors containing the same” (ONCOTHERAPY SCIENCE, INC., priority 2010, dated 2015).

One assay concerns T47D cells. The assay can be described thus: Cell-based assay: anti-proliferative activity, Cell Counting Kit-8, 72 hours (T47D). The gist of the method: (§1)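 Anti-MELK western blot on crude lysates → MELK status per line. Cells plated 96-well, compound exposure, CCK-8 readout at 72 h; IC50 calculated.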
The next assay has as its system A549 cells. Put plainly: Cell-based assay: anti-proliferative activity, Cell Counting Kit-8, 72 hours (A549). The note with it: 72 hours. The gist of the method:
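A549 cells seeded in 96-well plates and exposed to candidate inhibitors for 72 hours. Growth measured with Cell Counting Kit-8; IC50 values calculated from the dose response.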

The subject of another assay is 22Rv1 cells. The assay can be described thus: Cell-based assay: anti-proliferative activity, Cell Counting Kit-8, 72 hours (22Rv1).
The subject of a further assay is DU4475 cells. The assay can be described thus: Cell-based assay: anti-proliferative activity, Cell Counting Kit-8, 72 hours (DU4475).
The subject of a further assay is HT-1197 cells. The assay can be described thus: Cell-based assay: anti-proliferative activity, Cell Counting Kit-8, 72 hours (HT-1197, negative control without MELK expression). As to conditions: HT1197 cells (negative control, no MELK expression), 72 hours. The procedure, abridged:
as §1

The next assay concerns the target MELK (Homo sapiens, UniProt Q14680). Put plainly: Kinase assay: MELK activity, phosphorylation of FITC-labeled histone H3 peptide measured by IMAP fluorescence polarization. In kind it is biochemical. The note with it: MELK kinase assay, IMAP fluorescence polarization, 50 micro-M ATP, read-out: IC50 (μM) (kinase assay). The procedure, abridged:
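Compounds, serially diluted from 12.5 mM DMSO stocks to 1% final DMSO, were tested with FITC-labeled histone H3 peptide as substrate. The reaction was stopped with progressive binding solution. Fluorescence polarization was read after 0.5 hour at room temperature.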

Sequence of MELK (Q14680 whole entry, looked up): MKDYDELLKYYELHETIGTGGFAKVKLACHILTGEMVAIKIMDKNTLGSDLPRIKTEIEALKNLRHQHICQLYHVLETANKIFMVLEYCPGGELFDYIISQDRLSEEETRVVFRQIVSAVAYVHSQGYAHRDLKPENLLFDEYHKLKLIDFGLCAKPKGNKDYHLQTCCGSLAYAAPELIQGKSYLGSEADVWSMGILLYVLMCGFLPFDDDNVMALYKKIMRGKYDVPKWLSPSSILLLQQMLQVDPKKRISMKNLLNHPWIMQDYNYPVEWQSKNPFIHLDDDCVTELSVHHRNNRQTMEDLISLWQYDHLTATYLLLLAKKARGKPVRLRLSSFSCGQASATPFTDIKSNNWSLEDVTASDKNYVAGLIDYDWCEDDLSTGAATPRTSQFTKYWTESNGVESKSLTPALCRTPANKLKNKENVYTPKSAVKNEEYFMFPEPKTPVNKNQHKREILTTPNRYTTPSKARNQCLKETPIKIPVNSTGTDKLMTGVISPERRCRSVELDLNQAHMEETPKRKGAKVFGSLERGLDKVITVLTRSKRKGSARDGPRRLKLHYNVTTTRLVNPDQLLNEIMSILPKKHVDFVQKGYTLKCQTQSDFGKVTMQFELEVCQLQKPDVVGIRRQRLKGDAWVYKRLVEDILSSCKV

In the case of `CC(=O)c1c(C)nc2ccc(-c3cc(Cl)c(O)c(Cl)c3)cc2c1Nc1ccc(N2CCN(C)CC2)nc1` [Example 838, 1-(6-(3,5-dichloro-4-hydroxyphenyl)-2-methyl-4-(6-(4-methylpiperazin-1-yl)pyridin-3-ylamino)quinolin-3-yl)ethanone hydrochloride], the IC50 with T47D cells (Homo sapiens, T47D, 72 h) was found to be 17 µM; in the assay with A549 cells (Homo sapiens, A549, 72 h) it was 11 µM; in the assay on 22Rv1 cells (Homo sapiens, 22Rv1, 72 h), 7.2 µM; in the assay with DU4475 cells (Homo sapiens, DU-4475, 72 h), 14 µM; in the assay on HT-1197 cells (Homo sapiens, HT1197, 72 h) it was 25 µM; at MELK, 0.097 µM.
Consider `CCC(=O)c1cnc2ccc(-c3cc(Cl)c(O)c(Cl)c3)cc2c1N[C@H]1CC[C@H](CN2CCCC2)CC1` [Example 843], for which the IC50 in the assay on T47D cells (Homo sapiens, T47D, 72 h) was 0.15 µM; in the assay on A549 cells (Homo sapiens, A549, 72 h), 0.15 µM; in the assay on 22Rv1 cells (Homo sapiens, 22Rv1, 72 h), 0.19 µM; in the assay on DU4475 cells (Homo sapiens, DU-4475, 72 h) it was 0.057 µM; in the assay on HT-1197 cells (Homo sapiens, HT1197, 72 h), 4.2 µM; at MELK it was 0.0016 µM.
Regarding `CC(=O)c1cnc2ccc(-c3cc(F)c(O)c(Cl)c3)cc2c1N[C@H]1CC[C@H](CN2CCC[C@H]2CO)CC1` [Example 844, 1-(6-(3-chloro-5-fluoro-4-hydroxyphenyl)-4-((1S,4r)-4-(((S)-2-(hydroxymethyl)pyrrolidin-1-yl)methyl)cyclohexylamino)quinolin-3-yl)ethanone], the IC50 is 0.067 µM with T47D cells (Homo sapiens, T47D, 72 h); 0.18 µM in the assay with A549 cells (Homo sapiens, A549, 72 h); 0.18 µM in the assay on 22Rv1 cells (Homo sapiens, 22Rv1, 72 h); 0.092 µM in the assay with DU4475 cells (Homo sapiens, DU-4475, 72 h); 3.3 µM in the assay with HT-1197 cells (Homo sapiens, HT1197, 72 h); 0.0046 µM at MELK.
With `CCN(C)C[C@H]1CC[C@H](Nc2c(C(C)=O)cnc3ccc(-c4cc(F)c(O)c(Cl)c4)cc23)CC1` [Example 845], the IC50 in the assay on T47D cells (Homo sapiens, T47D, 72 h) was determined as 0.063 µM; in the assay on A549 cells (Homo sapiens, A549, 72 h), 0.14 µM; in the assay with 22Rv1 cells (Homo sapiens, 22Rv1, 72 h) it was 0.11 µM; in the assay on DU4475 cells (Homo sapiens, DU-4475, 72 h), 0.069 µM; with HT-1197 cells (Homo sapiens, HT1197, 72 h), 1.4 µM; at MELK, 0.00204 µM.
In the case of `CCC(=O)c1cnc2ccc(-c3cc(F)c(O)c(Cl)c3)cc2c1N[C@H]1CC[C@H](CN2CCCC2)CC1` [Example 846], the half-maximal inhibitory concentration (IC50) with T47D cells (Homo sapiens, T47D, 72 h) was 0.096 µM; with A549 cells (Homo sapiens, A549, 72 h) it was 0.13 µM; in the assay with 22Rv1 cells (Homo sapiens, 22Rv1, 72 h), 0.16 µM; in the assay on DU4475 cells (Homo sapiens, DU-4475, 72 h) it was 0.071 µM; in the assay on HT-1197 cells (Homo sapiens, HT1197, 72 h), 0.71 µM; at MELK it was 0.0023 µM.
As to `CC(=O)c1cnc2ccc(-c3cc(F)c(O)c(Cl)c3)cc2c1Nc1ccc(OCCN(C)C)nc1` [Example 848, 1-(6-(3-chloro-5-fluoro-4-hydroxyphenyl)-4-(6-(2-(dimethylamino)ethoxy)pyridin-3-ylamino)quinolin-3-yl)ethanone hydrochloride], the IC50 in the assay with T47D cells (Homo sapiens, T47D, 72 h) turned out to be 0.14 µM; in the assay with A549 cells (Homo sapiens, A549, 72 h), 0.29 µM; in the assay with 22Rv1 cells (Homo sapiens, 22Rv1, 72 h), 0.44 µM; in the assay with DU4475 cells (Homo sapiens, DU-4475, 72 h), 0.16 µM; in the assay on HT-1197 cells (Homo sapiens, HT1197, 72 h), 5.3 µM; on MELK it was 0.011 µM.
For `CC(=O)c1cnc2ccc(-c3cc(F)c(O)c(Cl)c3)cc2c1NC1CCC(C(=O)N2CCN(C)CC2)CC1` (stereo not drawn) [Example 849, 1-(6-(3-chloro-5-fluoro-4-hydroxyphenyl)-4-(4-(4-methylpiperazine-1-carbonyl)cyclohexylamino)quinolin-3-yl)ethanone hydrochloride], the half-inhibitory concentration (IC50) with T47D cells (Homo sapiens, T47D, 72 h) is 0.47 µM; in the assay on A549 cells (Homo sapiens, A549, 72 h) it was 1.3 µM; with 22Rv1 cells (Homo sapiens, 22Rv1, 72 h), 1 µM; in the assay with DU4475 cells (Homo sapiens, DU-4475, 72 h), 1 µM; in the assay with HT-1197 cells (Homo sapiens, HT1197, 72 h), 4.5 µM; at MELK, 0.018 µM.
For `CC(=O)c1cnc2ccc(-c3cc(Cl)c(O)c(Cl)c3)cc2c1NC1CCCN(CCN(C)C)C1` (stereo not drawn) [Example 850, 1-(6-(3,5-dichloro-4-hydroxyphenyl)-4-(1-(2-(dimethylamino)ethyl)piperidin-3-ylamino)quinolin-3-yl)ethanone], the IC50 in the assay on T47D cells (Homo sapiens, T47D, 72 h) was determined as 1.1 µM; in the assay on A549 cells (Homo sapiens, A549, 72 h) it was 0.89 µM; in the assay on 22Rv1 cells (Homo sapiens, 22Rv1, 72 h), 1.2 µM; with DU4475 cells (Homo sapiens, DU-4475, 72 h) it was 0.32 µM; in the assay on HT-1197 cells (Homo sapiens, HT1197, 72 h) it was 4 µM; on MELK, 0.0019 µM.
Consider `CC(=O)c1cnc2ccc(-c3cc(F)c(O)c(Cl)c3)cc2c1NC1CCCN(CCN(C)C)C1` (stereo not drawn) [Example 851, 1-(6-(3-chloro-5-fluoro-4-hydroxyphenyl)-4-(1-(2-(dimethylamino)ethyl)piperidin-3-ylamino)quinolin-3-yl)ethanone], for which the IC50 was 1.6 µM with T47D cells (Homo sapiens, T47D, 72 h); 1.6 µM with A549 cells (Homo sapiens, A549, 72 h); 1.5 µM in the assay with 22Rv1 cells (Homo sapiens, 22Rv1, 72 h); 0.65 µM in the assay with DU4475 cells (Homo sapiens, DU-4475, 72 h); 6 µM with HT-1197 cells (Homo sapiens, HT1197, 72 h); 0.04 µM on MELK.
In the case of `CC(=O)c1cnc2ccc(-c3cc(Cl)c(O)c(Cl)c3)cc2c1Nc1ccc(OCCN(C)C)nc1` [Example 852, 1-(6-(3,5-dichloro-4-hydroxyphenyl)-4-(6-(2-(dimethylamino)ethoxy)pyridin-3-ylamino)quinolin-3-yl)ethanone hydrochloride], the IC50 came out at 0.16 µM in the assay with T47D cells (Homo sapiens, T47D, 72 h); 0.29 µM with A549 cells (Homo sapiens, A549, 72 h); 0.55 µM in the assay on 22Rv1 cells (Homo sapiens, 22Rv1, 72 h); 0.088 µM with DU4475 cells (Homo sapiens, DU-4475, 72 h); 22 µM in the assay on HT-1197 cells (Homo sapiens, HT1197, 72 h); 0.0028 µM on MELK.
Regarding `CC(=O)c1cnc2ccc(-c3cc(F)c(O)c(Cl)c3)cc2c1Nc1ccc(N2CCC(N(C)C)C2)nc1` (stereo not drawn) [Example 853, 1-(6-(3-chloro-5-fluoro-4-hydroxyphenyl)-4-((6-(3-(dimethylamino)pyrrolidin-1-yl)pyridin-3-yl)amino)quinolin-3-yl)ethanone], the IC50 in the assay on T47D cells (Homo sapiens, T47D, 72 h) was found to be 0.2 µM; in the assay with A549 cells (Homo sapiens, A549, 72 h), 0.45 µM; in the assay with 22Rv1 cells (Homo sapiens, 22Rv1, 72 h), 0.65 µM; with DU4475 cells (Homo sapiens, DU-4475, 72 h) it was 0.38 µM; with HT-1197 cells (Homo sapiens, HT1197, 72 h), 10 µM; on MELK, 0.018 µM.
Turning to `CC(=O)c1cnc2ccc(-c3cc(Cl)c(O)c(Cl)c3)cc2c1Nc1ccc(N2CCC(N(C)C)C2)nc1` (stereo not drawn) [Example 854, 1-(6-(3,5-dichloro-4-hydroxyphenyl)-4-((6-(3-(dimethylamino)pyrrolidin-1-yl)pyridin-3-yl)amino)quinolin-3-yl)ethanone], the IC50 came out at 0.25 µM in the assay on T47D cells (Homo sapiens, T47D, 72 h); 0.39 µM with A549 cells (Homo sapiens, A549, 72 h); 0.51 µM with 22Rv1 cells (Homo sapiens, 22Rv1, 72 h); 0.28 µM with DU4475 cells (Homo sapiens, DU-4475, 72 h); 10 µM in the assay on HT-1197 cells; 0.0032 µM on MELK.
As to `CC(=O)c1cnc2ccc(-c3cc(Cl)c(O)c(Cl)c3)cc2c1Nc1ccc(N2CCC(N(C)C)C2)nc1` (stereo not drawn) [Example 855, 1-(6-(3,5-dichloro-4-hydroxyphenyl)-4-((6-(3-(dimethylamino)pyrrolidin-1-yl)pyridin-3-yl)amino)quinolin-3-yl)ethanone hydrochloride], the IC50 in the assay with T47D cells (72 hours, hydrochloride) came out at 0.26 µM; in the assay on A549 cells (hydrochloride), 0.38 µM; in the assay with 22Rv1 cells (hydrochloride), 0.64 µM; in the assay on DU4475 cells (hydrochloride) it was 0.23 µM; with HT-1197 cells (hydrochloride), 73 µM; at MELK (hydrochloride), 0.0021 µM.
Turning to `CCC(=O)c1cnc2ccc(-c3cc(F)c(O)c(Cl)c3)cc2c1Nc1ccc(N2CCC(N(C)C)C2)nc1` (stereo not drawn) [Example 860, 1-(6-(3-chloro-5-fluoro-4-hydroxyphenyl)-4-((6-(3-(dimethylamino)pyrrolidin-1-yl)pyridin-3-yl)amino)quinolin-3-yl)propan-1-one], the IC50 came to 0.14 µM in the assay on T47D cells (Homo sapiens, T47D, 72 h); 0.29 µM with A549 cells (Homo sapiens, A549, 72 h); 0.45 µM with 22Rv1 cells (Homo sapiens, 22Rv1, 72 h); 0.24 µM in the assay with DU4475 cells (Homo sapiens, DU-4475, 72 h); 3.6 µM in the assay with HT-1197 cells (Homo sapiens, HT1197, 72 h); 0.0062 µM on MELK.
For the compound `CC(=O)c1cnc2ccc(-c3cc(Cl)c(O)c(Cl)c3)cc2c1N[C@H]1CCC[C@H](CCN(C)C)C1` [Example 861, 1-(6-(3,5-dichloro-4-hydroxyphenyl)-4-(((1S,3R)-3-(2-(dimethylamino)ethyl)cyclohexyl)amino)quinolin-3-yl)ethanone hydrochloride], the IC50 with T47D cells (Homo sapiens, T47D, 72 h) was found to be 0.22 µM; in the assay on A549 cells (Homo sapiens, A549, 72 h), 0.25 µM; in the assay with 22Rv1 cells (Homo sapiens, 22Rv1, 72 h), 0.24 µM; in the assay with DU4475 cells (Homo sapiens, DU-4475, 72 h), 0.19 µM; in the assay with HT-1197 cells (Homo sapiens, HT1197, 72 h) it was 1 µM; on MELK it was 0.0032 µM.
In the case of `CC(=O)c1cnc2ccc(-c3cc(F)c(O)c(Cl)c3)cc2c1N[C@H]1CCC[C@H](CCN(C)C)C1` [Example 862, 1-(6-(3-chloro-5-fluoro-4-hydroxyphenyl)-4-(((1S,3R)-3-(2-(dimethylamino)ethyl)cyclohexyl)amino)quinolin-3-yl)ethanone hydrochloride], the IC50 in the assay with T47D cells (Homo sapiens, T47D, 72 h) was 0.26 µM; with A549 cells (Homo sapiens, A549, 72 h) it was 0.29 µM; in the assay on 22Rv1 cells (Homo sapiens, 22Rv1, 72 h), 0.2 µM; in the assay with DU4475 cells (Homo sapiens, DU-4475, 72 h) it was 0.2 µM; in the assay with HT-1197 cells (Homo sapiens, HT1197, 72 h), 1.1 µM; at MELK, 0.0067 µM.
